Test results published in ChEMBL document CHEMBL4371021, “BH3 mimetics derived from Bim-BH3 domain core region show PTP1B inhibitory activity” (Bioorg Med Chem Lett, 2019).
Residues, ends and D or L forms follow the SMILES beside them.

Target: T1, Tyrosine-protein phosphatase non-receptor type 1 (Homo sapiens) (UniProt P18031)
T1 sequence (whole entry): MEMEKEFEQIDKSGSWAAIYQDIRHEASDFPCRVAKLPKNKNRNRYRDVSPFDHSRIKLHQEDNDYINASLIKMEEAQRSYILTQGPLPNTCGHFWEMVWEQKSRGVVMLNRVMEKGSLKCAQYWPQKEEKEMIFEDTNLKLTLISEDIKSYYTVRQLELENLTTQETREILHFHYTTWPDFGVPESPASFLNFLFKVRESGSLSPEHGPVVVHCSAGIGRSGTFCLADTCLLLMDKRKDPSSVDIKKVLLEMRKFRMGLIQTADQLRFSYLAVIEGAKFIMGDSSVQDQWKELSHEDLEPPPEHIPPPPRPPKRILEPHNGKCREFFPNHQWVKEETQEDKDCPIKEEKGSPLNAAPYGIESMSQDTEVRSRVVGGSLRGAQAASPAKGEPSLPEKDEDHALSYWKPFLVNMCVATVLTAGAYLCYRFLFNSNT
Experiment: Inhibition of recombinant human N-terminal poly histidine-tagged PTP1B (Glu2 to Asn321 residues) expressed in Escherichia coli at 40 umol/L using pNPP as substrate measured for 4 mins relative to control

| inhibition | Compound |
| --- | --- |
| 4.25% | CC[C@H](C)[C@H](NC(=O)COCCOCCOCCOCCOC)C(=O)N[C@@H](C)C(=O)N[C@@H](CCC(N)=O)C(=O)N[C@@H](CCC(=O)O)C(=O)N[C@@H](CC(C)C)C(=O)N[C@@H](CCCNC(=N)N)C(=O)N[C@@H](CCCNC(=N)N)C(=O)N[C@H](C(=O)NCC(=O)N[C@@H](CC(=O)O)C(=O)N[C@@H](CCC(=O)O)C(=O)N[C@@H](Cc1ccccc1)C(N)=O)[C@@H](C)CC (HELM PEPTIDE1{[COCCOCCOCCOCCOCC(=O)[*:2]].I.A.Q.E.L.R.R.I.G.D.E.F.[am]}$$$$V2.0) |
| 2.1% | Ac-IAQELRRIGDEF-NH2 |
